Each block holds one molecule with its values, some of them ahead of it. The source made the active and inactive calls.
Experiments:
[1] = molecular target: T1, Alkaline phosphatase, tissue-nonspecific isozyme (Homo sapiens, UniProt P05186)
T1 sequence (P05186 whole entry): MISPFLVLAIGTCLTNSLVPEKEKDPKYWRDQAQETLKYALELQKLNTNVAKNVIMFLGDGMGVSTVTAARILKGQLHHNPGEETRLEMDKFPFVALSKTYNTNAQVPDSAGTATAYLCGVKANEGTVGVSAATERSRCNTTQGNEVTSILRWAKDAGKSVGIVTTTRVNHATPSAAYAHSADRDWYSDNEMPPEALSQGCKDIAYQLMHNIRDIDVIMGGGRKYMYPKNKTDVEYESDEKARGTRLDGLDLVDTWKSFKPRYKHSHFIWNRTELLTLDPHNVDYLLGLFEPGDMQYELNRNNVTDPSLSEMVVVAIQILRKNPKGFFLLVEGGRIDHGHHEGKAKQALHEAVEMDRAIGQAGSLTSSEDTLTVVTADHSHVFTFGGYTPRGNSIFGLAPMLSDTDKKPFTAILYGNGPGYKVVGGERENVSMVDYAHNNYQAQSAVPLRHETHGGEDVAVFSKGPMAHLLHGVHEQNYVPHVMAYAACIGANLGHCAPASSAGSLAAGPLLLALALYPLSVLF

[2] = A549 cell cytotoxicity, dose response, cytotoxicity control, plate reader, cherry-pick, antagonist series (AID 743412); type: functional, cell-based
[3] = blockers of bursicon-stimulated LGR2 cAMP reporter – cell-based, HEK293, CRE-luciferase reporter, cherry pick, set 2, dose response (AID 743343); type: functional;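 also: transfected cells were stimulated with diluted bursicon conditioned medium after compound addition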
[4] = blockade of melanocortin 4 receptor signaling – cell-based, plate reader, cherry pick, counter-screen for LGR2 antagonist project, dose response (AID 743444); type: functional;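 also: transfected HEK 293 cells stimulated with alpha-MSH peptide; potency of inhibitors of the alpha-MSH evoked signal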
[5] = molecular target: T2, Microphthalmia-associated transcription factor (Homo sapiens, UniProt O75030); test: reducers of TRPM1 reporter luminescence, concentration series – cell-based, SK-MEL-5, cherry-picked, set 3, MITF inhibitor project, dose response (AID 493073); type: functional;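 also: SK-MEL-5 melanoma cells with luciferase driven by the MITF target TRPM1 promoter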
T2 sequence (O75030 whole entry): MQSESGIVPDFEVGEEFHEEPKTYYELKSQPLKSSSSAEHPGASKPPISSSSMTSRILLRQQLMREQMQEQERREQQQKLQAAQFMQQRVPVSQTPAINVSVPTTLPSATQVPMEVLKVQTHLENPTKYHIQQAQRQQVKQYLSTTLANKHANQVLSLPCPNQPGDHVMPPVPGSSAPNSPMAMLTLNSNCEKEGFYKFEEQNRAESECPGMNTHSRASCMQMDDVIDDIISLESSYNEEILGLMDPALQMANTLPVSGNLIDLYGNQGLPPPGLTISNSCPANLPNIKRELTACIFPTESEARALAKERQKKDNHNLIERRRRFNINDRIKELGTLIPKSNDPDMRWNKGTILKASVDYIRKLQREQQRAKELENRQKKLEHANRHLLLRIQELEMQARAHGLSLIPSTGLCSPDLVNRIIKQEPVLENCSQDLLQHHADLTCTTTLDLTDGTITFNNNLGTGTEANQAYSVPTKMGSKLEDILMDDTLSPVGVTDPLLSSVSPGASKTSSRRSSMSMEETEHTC

[6] = viability loss in HEK293 cells – cell-based, plate reader, cherry-picked samples, cytotoxicity control, dose response (AID 743446); type: functional
[7] = toxicity toward HepG2 liver cells – cell-based, plate reader, cherry-pick, antagonist series, cytotoxicity control, dose response (AID 743416); type: functional
[8] = molecular target: Acyl-homoserine lactone acylase PvdQ (Pseudomonas aeruginosa (strain LESB58), UniProt Q9I194); test: PvdQ acylase enzyme activity blockers – biochemical, fluorescence, plate reader and imaging, cherry-picks, dose response (AID 493231)
Acyl-homoserine lactone acylase PvdQ, sequence (Q9I194 24-193 limits assumed): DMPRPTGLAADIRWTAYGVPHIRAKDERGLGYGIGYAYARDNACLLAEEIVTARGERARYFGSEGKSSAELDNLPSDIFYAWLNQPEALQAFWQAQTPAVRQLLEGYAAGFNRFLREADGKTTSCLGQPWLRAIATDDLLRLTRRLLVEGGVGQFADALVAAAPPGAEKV
Acyl-homoserine lactone acylase PvdQ, sequence (Q9I194 217-762 limits assumed): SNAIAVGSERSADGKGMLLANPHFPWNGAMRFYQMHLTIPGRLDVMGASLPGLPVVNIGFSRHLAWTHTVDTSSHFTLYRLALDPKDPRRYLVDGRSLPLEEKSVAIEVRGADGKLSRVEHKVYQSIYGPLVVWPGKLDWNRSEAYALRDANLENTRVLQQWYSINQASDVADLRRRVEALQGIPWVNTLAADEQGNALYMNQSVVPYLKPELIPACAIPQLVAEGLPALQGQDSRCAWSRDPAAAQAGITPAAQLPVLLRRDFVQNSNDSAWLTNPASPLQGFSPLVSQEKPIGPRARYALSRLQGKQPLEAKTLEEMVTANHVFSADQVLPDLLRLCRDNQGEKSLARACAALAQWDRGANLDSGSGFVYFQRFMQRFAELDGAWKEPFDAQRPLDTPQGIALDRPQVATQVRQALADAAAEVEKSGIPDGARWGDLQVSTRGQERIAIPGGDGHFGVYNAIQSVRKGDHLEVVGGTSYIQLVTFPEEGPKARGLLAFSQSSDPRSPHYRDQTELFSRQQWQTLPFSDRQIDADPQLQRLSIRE

X-box-binding protein 1 = X-box-binding protein 1 (Homo sapiens, UniProt P17861); type: functional, Cricetulus griseus;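 also: confirmatory dose-response counter-screen serving a CHOP assay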
X-box-binding protein 1, sequence (P17861 whole entry): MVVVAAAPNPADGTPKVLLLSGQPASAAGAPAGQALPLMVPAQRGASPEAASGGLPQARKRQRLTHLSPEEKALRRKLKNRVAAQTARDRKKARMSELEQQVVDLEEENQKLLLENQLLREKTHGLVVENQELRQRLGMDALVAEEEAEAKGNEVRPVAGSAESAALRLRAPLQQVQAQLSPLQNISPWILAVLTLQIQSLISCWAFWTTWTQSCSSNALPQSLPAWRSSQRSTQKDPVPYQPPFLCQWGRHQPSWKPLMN

[9] = viability of PTEN-deleted HCT116 cells – cell-based, HCT116 PTEN knockout, dose response (AID 1047); type: functional;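 also: HCT116 colon tumor cells with PTEN knocked out; cells exposed to compound for 60 hours before readout; potency for loss of cell viability measured by luminescence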
[10] = viability of HCT116 lacking mutant beta-catenin – cell-based, human colon tumor, dose response (AID 1045); type: functional;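 also: HCT116 colon tumor cells with beta catenin knocked out; cells exposed to compound for 60 hours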
[11] = molecular target: T3, Zinc finger protein mex-5 (Caenorhabditis elegans, UniProt Q9XUB2); test: potency of MEX-5 RNA-binding blockers – biochemical, C. elegans, fluorescence polarization, dose response (AID 1960)
T3 sequence (Q9XUB2 whole entry): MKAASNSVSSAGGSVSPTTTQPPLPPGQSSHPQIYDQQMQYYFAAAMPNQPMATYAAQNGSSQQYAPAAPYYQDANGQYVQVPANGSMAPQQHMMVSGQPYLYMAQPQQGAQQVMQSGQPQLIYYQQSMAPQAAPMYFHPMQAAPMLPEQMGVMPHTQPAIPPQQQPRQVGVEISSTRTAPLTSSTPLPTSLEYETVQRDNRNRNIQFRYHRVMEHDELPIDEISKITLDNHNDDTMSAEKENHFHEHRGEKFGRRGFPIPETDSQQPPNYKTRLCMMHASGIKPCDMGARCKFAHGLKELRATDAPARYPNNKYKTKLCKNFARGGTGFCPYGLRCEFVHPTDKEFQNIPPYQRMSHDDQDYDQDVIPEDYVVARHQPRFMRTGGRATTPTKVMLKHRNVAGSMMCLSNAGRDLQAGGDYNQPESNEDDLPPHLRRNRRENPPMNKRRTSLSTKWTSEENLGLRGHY

Insulin-degrading enzyme = molecular target: T4, Insulin-degrading enzyme (Homo sapiens, UniProt P14735); test: Dose Response: Fluorescence polarization-based cell-based high throughput dose response assay for inhibitors of insulin-degrading enzyme (IDE). [Related pubchem assays: 434962 (Primary screen (IDE inhibitors in singlicate)), 449730 (Counterscreen (Cytotoxicity in triplicate)), 435028 (Confirmation (IDE inhibitors in triplicate)), 434984 (Summary …; type: functional
T4 sequence (P14735 whole entry): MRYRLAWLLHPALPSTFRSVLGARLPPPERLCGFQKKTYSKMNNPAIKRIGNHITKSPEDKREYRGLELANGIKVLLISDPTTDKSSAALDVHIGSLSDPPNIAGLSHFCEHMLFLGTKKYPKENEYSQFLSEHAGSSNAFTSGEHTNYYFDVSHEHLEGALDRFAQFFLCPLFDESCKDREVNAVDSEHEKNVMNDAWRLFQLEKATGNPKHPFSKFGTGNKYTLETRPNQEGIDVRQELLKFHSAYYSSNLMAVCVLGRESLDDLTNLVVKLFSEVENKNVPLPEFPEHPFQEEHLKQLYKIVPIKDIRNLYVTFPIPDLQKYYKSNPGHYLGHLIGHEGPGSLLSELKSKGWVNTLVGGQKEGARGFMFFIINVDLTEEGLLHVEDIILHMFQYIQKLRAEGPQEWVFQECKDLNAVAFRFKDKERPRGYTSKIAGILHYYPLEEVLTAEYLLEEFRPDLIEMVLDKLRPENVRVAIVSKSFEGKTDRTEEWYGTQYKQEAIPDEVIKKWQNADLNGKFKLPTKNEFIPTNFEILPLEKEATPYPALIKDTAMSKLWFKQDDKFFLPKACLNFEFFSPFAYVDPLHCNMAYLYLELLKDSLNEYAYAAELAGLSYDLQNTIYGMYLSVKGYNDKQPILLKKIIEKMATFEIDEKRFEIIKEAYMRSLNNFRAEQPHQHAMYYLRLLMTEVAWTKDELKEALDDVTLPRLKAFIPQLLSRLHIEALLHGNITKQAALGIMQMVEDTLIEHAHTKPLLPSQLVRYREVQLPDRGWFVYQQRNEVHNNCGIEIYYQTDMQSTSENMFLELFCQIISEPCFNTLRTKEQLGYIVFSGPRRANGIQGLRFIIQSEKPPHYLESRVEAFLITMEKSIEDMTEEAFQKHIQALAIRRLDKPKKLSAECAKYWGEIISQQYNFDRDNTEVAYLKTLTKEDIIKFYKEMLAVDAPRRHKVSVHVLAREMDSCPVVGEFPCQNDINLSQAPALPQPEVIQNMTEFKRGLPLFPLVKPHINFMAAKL

[12] = Counterscreen for IDE inhibitors: Luminescence-based cell-based high throughput dose response assay to identify compounds that are cytotoxic to HEK cells. [Related pubchem assays: 434962 (Primary screen (IDE inhibitors in singlicate)), 449730 (Counterscreen (Cytotoxicity in triplicate)), 435028 (Confirmation (IDE inhibitors in triplicate)) …; type: functional; conditions: HEK293
[13] = molecular target: T5, RNA-binding protein pos-1 (Caenorhabditis elegans, UniProt G5EF15); test: disruptors of C. elegans POS-1 RNA interaction – biochemical, fluorescence polarization, dose response (AID 1964);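 also: purified POS-1 fused to maltose binding protein made in E. coli; potency of compounds blocking POS-1 binding to fluorescent RNA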
T5 sequence (G5EF15 whole entry): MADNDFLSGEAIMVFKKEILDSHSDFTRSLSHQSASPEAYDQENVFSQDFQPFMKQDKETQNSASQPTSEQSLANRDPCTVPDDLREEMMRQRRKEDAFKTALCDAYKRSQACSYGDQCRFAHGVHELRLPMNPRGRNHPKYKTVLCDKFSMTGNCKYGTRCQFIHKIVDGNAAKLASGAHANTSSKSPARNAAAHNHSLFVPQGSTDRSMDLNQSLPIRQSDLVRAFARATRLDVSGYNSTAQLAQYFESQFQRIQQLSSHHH

[14] = molecular target: C-C chemokine receptor type 6 (Homo sapiens, UniProt P51684); test: antagonism of CCR6 beta-arrestin recruitment – cell-based, luminescent beta-arrestin readout, dose response (AID 504728); type: functional
C-C chemokine receptor type 6, sequence (P51684 whole entry): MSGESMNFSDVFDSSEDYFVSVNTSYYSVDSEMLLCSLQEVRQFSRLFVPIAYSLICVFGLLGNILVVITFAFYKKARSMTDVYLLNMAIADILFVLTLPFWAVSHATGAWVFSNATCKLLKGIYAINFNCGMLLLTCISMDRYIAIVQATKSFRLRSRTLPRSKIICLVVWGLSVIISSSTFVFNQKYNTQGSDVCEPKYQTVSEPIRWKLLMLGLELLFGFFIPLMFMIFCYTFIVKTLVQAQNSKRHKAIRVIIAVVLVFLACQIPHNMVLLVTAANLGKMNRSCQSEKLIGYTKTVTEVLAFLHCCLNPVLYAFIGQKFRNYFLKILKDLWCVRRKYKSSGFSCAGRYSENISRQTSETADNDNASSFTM

Beta-galactosidase = Beta-galactosidase (Escherichia coli, UniProt Q8VNN2); test: detection-enzyme interference by beta-gal modulators – biochemical, E. coli enzyme, set 3, artefact control for CCR6 antagonist project, dose response (AID 504712); type: functional
Beta-galactosidase, sequence (Q8VNN2 whole entry): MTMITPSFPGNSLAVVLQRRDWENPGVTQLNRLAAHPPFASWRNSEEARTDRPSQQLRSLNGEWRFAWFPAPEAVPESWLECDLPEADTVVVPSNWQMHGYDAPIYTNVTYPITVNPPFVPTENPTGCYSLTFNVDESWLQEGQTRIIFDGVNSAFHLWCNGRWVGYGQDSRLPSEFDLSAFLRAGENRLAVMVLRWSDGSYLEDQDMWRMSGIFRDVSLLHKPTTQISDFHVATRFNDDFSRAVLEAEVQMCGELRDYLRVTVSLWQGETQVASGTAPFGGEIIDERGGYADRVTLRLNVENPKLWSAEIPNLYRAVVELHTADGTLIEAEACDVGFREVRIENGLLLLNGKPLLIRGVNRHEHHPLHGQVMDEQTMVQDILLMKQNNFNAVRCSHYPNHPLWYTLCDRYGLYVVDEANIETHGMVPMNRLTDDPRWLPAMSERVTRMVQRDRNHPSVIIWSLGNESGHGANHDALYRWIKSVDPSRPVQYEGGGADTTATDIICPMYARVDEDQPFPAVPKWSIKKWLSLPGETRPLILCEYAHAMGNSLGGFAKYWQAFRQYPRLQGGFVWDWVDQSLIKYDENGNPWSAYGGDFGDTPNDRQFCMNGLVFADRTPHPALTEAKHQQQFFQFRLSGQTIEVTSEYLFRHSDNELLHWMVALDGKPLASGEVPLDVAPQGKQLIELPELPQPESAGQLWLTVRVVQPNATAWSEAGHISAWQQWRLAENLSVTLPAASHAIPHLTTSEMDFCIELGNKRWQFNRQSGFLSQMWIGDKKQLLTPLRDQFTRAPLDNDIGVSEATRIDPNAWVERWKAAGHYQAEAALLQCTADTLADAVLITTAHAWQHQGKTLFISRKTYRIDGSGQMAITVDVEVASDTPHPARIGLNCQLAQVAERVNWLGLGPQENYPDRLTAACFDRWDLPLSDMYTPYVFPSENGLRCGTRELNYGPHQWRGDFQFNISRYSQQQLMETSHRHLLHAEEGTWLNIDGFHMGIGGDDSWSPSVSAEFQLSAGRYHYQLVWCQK

[15] = molecular target: T6, Mannose-6-phosphate isomerase (Homo sapiens, UniProt P34949); test: MPI inhibition at elevated mannose 6-phosphate – biochemical, fluorescence intensity, high mannose 6-phosphate, primary screen (AID 1220)
T6 sequence (P34949 whole entry): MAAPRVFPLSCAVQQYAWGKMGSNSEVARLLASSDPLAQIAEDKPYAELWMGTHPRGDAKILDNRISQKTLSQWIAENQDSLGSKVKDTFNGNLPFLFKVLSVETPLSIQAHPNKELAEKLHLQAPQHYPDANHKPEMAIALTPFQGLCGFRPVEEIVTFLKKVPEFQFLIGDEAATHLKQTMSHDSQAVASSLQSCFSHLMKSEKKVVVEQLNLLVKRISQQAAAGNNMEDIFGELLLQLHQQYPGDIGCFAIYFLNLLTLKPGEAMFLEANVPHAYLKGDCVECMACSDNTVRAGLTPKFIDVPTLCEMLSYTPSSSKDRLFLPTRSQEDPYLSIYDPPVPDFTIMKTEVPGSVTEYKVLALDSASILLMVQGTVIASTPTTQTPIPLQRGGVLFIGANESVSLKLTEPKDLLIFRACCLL

[16] = molecular target: T7, Voltage-gated N-type calcium channel alpha-1B subunit/Amyloid beta A4 precursor protein-binding family A member 1 (Homo sapiens, UniProt Q00975+Q02410); test: disruptors of Mint-PDZ/N-type channel peptide interaction – biochemical, HTRF, set 2, SAR follow-up (AID 434980); type: functional
[17] = molecular target: T7, Voltage-gated N-type calcium channel alpha-1B subunit/Amyloid beta A4 precursor protein-binding family A member 1; test: disruptors of Mint-PDZ/N-type channel peptide interaction – biochemical, HTRF, SAR follow-up (AID 2489); type: functional
[18] = molecular target: Voltage-dependent T-type calcium channel subunit alpha-1H (Homo sapiens, UniProt O95180); type: functional;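 also: channel activity triggered by adding a high calcium stimulation buffer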
Voltage-dependent T-type calcium channel subunit alpha-1H, sequence (O95180 whole entry, the tested form may be a part): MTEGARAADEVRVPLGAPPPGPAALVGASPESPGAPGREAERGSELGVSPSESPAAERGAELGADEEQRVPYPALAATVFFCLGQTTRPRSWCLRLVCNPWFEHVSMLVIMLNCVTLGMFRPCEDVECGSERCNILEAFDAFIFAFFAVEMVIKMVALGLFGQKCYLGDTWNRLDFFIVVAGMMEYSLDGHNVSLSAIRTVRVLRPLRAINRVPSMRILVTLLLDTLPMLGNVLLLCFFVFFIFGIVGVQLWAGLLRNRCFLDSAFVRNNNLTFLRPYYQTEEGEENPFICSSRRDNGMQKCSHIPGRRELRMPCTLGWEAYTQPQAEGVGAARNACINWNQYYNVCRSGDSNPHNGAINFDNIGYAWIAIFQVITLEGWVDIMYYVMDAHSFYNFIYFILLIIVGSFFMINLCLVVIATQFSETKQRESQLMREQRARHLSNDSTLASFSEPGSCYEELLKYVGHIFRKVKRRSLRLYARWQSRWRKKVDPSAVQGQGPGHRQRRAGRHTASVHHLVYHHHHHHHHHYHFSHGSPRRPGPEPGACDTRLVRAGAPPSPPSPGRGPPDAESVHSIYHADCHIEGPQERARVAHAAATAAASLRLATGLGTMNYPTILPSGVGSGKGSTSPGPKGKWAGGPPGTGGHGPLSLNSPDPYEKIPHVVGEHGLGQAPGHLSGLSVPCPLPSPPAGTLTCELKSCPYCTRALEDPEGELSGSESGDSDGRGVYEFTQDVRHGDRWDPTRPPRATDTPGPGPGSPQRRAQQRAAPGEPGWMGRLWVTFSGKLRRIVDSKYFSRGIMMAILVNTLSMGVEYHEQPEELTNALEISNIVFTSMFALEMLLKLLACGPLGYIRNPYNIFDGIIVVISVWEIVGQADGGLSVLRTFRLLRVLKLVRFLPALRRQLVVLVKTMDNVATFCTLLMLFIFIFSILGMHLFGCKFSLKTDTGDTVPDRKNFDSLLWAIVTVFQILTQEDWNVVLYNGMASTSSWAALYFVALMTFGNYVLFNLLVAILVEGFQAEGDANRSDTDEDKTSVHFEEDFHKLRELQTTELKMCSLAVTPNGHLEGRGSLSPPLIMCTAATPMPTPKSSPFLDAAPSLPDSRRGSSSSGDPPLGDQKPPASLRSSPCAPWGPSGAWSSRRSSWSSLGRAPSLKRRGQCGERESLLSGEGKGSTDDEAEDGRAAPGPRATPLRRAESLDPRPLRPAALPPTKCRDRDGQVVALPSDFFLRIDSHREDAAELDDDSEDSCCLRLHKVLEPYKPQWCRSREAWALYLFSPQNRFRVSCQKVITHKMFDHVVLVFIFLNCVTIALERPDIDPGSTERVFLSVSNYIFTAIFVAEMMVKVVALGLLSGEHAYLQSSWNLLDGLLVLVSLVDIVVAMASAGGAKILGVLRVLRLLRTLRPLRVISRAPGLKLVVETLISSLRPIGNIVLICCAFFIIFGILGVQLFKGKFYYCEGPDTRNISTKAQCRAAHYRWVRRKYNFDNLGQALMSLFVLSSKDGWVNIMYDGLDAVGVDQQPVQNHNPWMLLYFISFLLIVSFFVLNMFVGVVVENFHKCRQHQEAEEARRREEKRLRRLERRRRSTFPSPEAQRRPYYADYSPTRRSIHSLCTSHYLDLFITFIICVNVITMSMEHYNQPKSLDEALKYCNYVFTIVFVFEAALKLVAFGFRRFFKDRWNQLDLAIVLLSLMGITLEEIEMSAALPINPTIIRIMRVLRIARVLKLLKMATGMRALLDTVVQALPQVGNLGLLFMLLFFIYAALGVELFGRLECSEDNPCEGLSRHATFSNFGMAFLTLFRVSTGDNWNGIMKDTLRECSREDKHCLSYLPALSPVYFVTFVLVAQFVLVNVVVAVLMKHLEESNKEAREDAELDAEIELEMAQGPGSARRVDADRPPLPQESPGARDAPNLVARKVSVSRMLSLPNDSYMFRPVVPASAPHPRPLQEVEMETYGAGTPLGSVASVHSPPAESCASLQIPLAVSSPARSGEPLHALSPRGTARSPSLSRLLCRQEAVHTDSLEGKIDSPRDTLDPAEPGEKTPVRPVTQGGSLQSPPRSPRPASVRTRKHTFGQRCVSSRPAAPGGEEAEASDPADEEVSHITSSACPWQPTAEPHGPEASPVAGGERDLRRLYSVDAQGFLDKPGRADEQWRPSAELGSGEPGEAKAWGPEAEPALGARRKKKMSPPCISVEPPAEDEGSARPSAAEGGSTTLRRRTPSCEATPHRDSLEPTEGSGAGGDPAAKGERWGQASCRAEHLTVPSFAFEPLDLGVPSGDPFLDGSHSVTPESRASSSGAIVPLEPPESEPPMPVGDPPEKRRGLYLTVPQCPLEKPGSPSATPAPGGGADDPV

[19] = molecular target: T8, Oxysterols receptor LXR-beta (Homo sapiens, UniProt P55055); test: LXR agonists, Gal4 luciferase reporter, dose response, counter-screen for ssDAF-12 agonist project, cell-based, luminescence, HEK293, S. stercoralis campaign (AID 720737); type: functional; conditions: read-out: IC50 (the source's name)
T8 sequence (P55055 whole entry): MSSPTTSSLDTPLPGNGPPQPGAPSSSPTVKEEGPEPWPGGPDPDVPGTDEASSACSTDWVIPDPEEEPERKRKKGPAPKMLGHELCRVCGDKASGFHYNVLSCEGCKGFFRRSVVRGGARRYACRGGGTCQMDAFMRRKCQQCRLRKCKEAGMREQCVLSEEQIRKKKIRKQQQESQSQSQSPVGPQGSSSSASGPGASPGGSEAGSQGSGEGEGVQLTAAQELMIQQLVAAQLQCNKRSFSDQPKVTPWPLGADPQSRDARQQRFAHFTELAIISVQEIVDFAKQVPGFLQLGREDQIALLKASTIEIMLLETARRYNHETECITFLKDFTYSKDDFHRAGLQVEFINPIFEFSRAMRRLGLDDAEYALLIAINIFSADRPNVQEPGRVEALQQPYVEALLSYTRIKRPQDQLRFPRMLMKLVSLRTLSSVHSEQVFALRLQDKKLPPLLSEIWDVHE

[20] = molecular target: T8, Oxysterols receptor LXR-beta; type: functional, cell-based
[21] = Luminescence-based cell-based high throughput dose response assay to identify activators of the DAF-12 from the parasite S. stercoralis (ssDAF-12).; type: functional

SMILES: CCOc1ccc(NC(=O)c2ccccn2)cc1
AC50 [2]: 43.4 µM (active)
AC50 [3]: 0.999 µM (active)
AC50 [4]: 1.23 µM (active)
AC50 [5]: 4.4 µM (active)
AC50 [6]: > 52 µM (inactive)
AC50 [7]: > 52 µM (inactive)
AC50 [8]: > 100 µM (inactive)

SMILES: COc1ccc(C(CCNCc2ccc(F)cc2)c2ccc(F)cc2)cc1 (stereo not given)
Absolute IC50 (XBP1) (X-box-binding protein 1): 10 µM
EC50 [9]: 9.32 µM (active)
EC50 [10]: 7.18 µM (active)

SMILES: O=C(C1=NN(c2ccccc2)C2C(=O)N(c3ccccc3Cl)C(=O)C12)c1ccccc1 (stereo not given)
EC50 [11]: > 300 µM (inconclusive)
IC50 (Insulin-degrading enzyme): > 6.21 µM (active)
IC50 [12]: > 55.7 µM (not active)
EC50 [13]: > 300 µM (not active)

SMILES: Oc1cccc(/C=N/Nc2cccc3cccnc23)c1
EC50 (cells): > 67.5 µM (inactive)
EC50 [19]: > 67.5 µM (inactive)
EC50 [20]: > 67.5 µM (inactive)
IC50 [21]: > 67.5 µM (inactive)
EC50 [1]: > 100 µM (not active)

SMILES: Cc1ccc(C(C#N)c2ccc(Cl)nn2)cc1 (stereo not given)
AC50 [8]: 1.6 µM (active)

Next, values leading:

EC50 [1]: > 100 µM (not active)
SMILES: COc1ccc(OCC(=O)Nc2ccc3oc(-c4ccncc4)nc3c2)cc1

IC50 [14]: > 66.6 µM (inactive)
IC50 (Beta-galactosidase): > 66.6 µM (inactive)
IC50 [15]: > 50 µM (not active)
SMILES: C/C(=N\O)C(=O)C(CN1CCCCC1)CN1CCCCC1

IC50 [14]: > 66.6 µM (inactive)
IC50 (Beta-galactosidase): > 66.6 µM (inactive)
SMILES: N#CC(=C1C=CC(=NO)C(Cl)=C1)c1ccc(Cl)cc1

IC50 [16]: 44.7 µM (active)
IC50 [17]: > 56.8 µM (inactive)
SMILES: O=C(NCCCc1ccccc1)c1cc(-c2ccco2)nc2ccccc12

EC50 [18]: 5.52 µM (active)
SMILES: CCOc1ccccc1OCCOc1ccccc1OC(C)C

Absolute IC50 (XBP1) (X-box-binding protein 1): < 10 µM
SMILES: Cc1cc2c(cc1C)CSC(c1ccccc1O)SC2

— ChEMBL document CHEMBL1201862, “PubChem BioAssay data set” (2004)
